Results as given in US10676440B2, “Crystalline forms of an NK-1 antagonist” (Helsinn Healthcare SA, priority 2014, dated 2020).
“And” between values parts separate entries of the source, which are not always exact repeats. Identical values can stand only once.

Tests used:
[1] = in vivo; conditions: for AUC(0-t): AUC (0-100 h)
Method: In Example 10, the pharmacokinetics of the compound of Formula I in dogs following single intravenous and oral administration was evaluated and the oral bioavailability of five different salts of the compound of Formula I was compared. The compound of Formula I was administered to dogs as described in Table 12. The doses are expressed in mg of free base.
The experiments were performed in 15 male dogs (bodyweight 11-18 kg) from RCC Ltd., Biotechnology and Animal Breeding Division, Wolferstrasse 4, CH-4414, Fullinsdorf, Switzerland. The animals were housed under standard laboratory conditions throughout the study period.
For the pharmacokinetic studies, 1 mL blood samples were collected from the cephalic vein of the dogs via catheter at 15, 30 min and at 1, 2, 3, 4, 6, 8, 24, 32, 48, 56, 72, 80, 96, and 100 (or 104) hours following oral dosing. After intravenous administration, blood samples were collected at 5, 15, 30 min and 1, 2, 3, 4, 6, 8, 24, 32, 48, 56, 75, 102, 120, 128, 144, 152, 168, 176, 192, and 200 hours. Collection tubes contained EDTA/NaF as anticoagulant and stabilizer. After centrifugation, plasma was removed and stored deep frozen at approximately −20° C. until analysis using a specific LC-MS method.
Aliquots of 40 μL plasma were mixed with 50 μL buffer at pH 5, 50 μL internal standard of Formula I (1 μg/mL in 1-chlorobutane) and 250 μL butylacetate and then shaken for 10 min. After centrifugation, 200 μL of the supernatant were evaporated to dryness at 45° C. under a stream of nitrogen. The residue was reconstituted with 200 μL acetonitrile/1% formic acid in water (30/70, v/v). Aliquots of 30 μL were injected onto the analytical column (Waters, Symmetry C8, 2.1×150 mm, 5 μm).
Separation occurred by gradient elution using a solvent A (acetonitrile) and solvent B (1% formic acid in water). The flow rate was 0.3 mL/min and the gradient elution was: […]
The sample passed to the ion-spray interface of the single quadrupole mass spectrometer. Selected ion monitoring mode (SIM) was used for mass spectrometric detection. Quantification was based on peak area ratios and calibration curve established between 2 and 5000 ng/mL.
To a 100 μL sample aliquot were added 200 μL of a mixture of acetonitrile/ethanol containing the deuterated internal standard, to precipitate plasma proteins. After vortex mixing and centrifugation, aliquots of the supernatants were transferred to 96-deel-well plates and injected for analysis (5 μL). Following enrichment and cleanup on the trapping column, the analyte was eluted and separated by gradient elution on a 2.1*30 mm analytical column (XTerra MS C18). The effluent from the analytical column was passed to the turbo ion spray vie a divert valve.
Calibration standards were prepared in dog plasma. The calibration range was from 10-5000 ng/mL. In each analytical series, a set of calibration standards was worked up and run with the unknowns. Calibration was then performed by computing a weighted (1/X^2) least-squares linear regression line of the measured peak area ratios (Y) (analyte to internal standard) versus the spiked concentrations (X). The drug concentrations of the unknown samples were then calculated from this regression line (UNICHROM). The performance of the analytical procedure during sample analysis was monitored. With each analytical series, quality control (QC) samples in dog plasma, spiked with known amounts of the analyte, were run together with the study samples.
The pharmacokinetic parameters were estimated by non-compartmental analysis, using the pharmacokinetic evaluation program WinNOnlin [1]. AUC(0-inf.) was calculated applying the linear trapezoidal rule and extrapolation to infinity using the apparent elimination rate constant kz and the calculated concentration at the last measurable time point. AUClast values were calculated by linear trapezoidal rule from time zero to time of last measureable time point.

[2] = in vivo
Method: In Example 11, the pharmacokinetics of the compound of Formula I was evaluated following single intravenous, intraperitoneal, and oral administration to rats to compare the oral bioavailability of two different formulations and to measure the brain penetration after intravenous administration.
A solution of the compound of Formula I (4.7 mg/mL) in water and a suspension of the compound of Formula I (5 mg/mL) in SSV (standard suspension vehicle) were prepared.
The experiments were performed in 20 male rats (Strain RoRo Fuellinsdorf, body weight 230-290 g) from Biological Research Laboratories, Fuellinsdorf, Switzerland. The animals were housed under standard laboratory conditions throughout the study period. After an acclimatization period of 3 days, the rats were implanted with chronic jugular catheters under pentobarbital anesthesia. After surgery the rats were on recovery for 2 days before dosing. They had free access to water and food during the experiment.
For the pharmacokinetic studies, 0.4 mL blood samples were collected at different time points, up to 72 hours post-dose, from the jugular vein of the rats via catheter. For the study of brain and CSF penetration, 2 mL blood samples as well as CSF and brain were collected between 0.3 and 2 hours post-dose from one rat at each time point. Collection tubes contained EDTA/NAF as anticoagulant and stabilizer, respectively. After centrifugation, plasma was removed. Plasma, CSF and brain samples were stored deep-frozen at approximately −20° C. until analysis using a specific LC-MS method.
Aliquots of plasma samples of 40 μL were mixed with 50 μL buffer pH 9, 50 μL of a Formula I internal standard (1 μg/mL 1-chlorobutane) and 250 μL butylacetate and then shaken for 10 min. After centrifugation, 200 μL of the supernatant were evaporated to dryness at 45° C. under a stream of nitrogen. The residue was reconstituted with 200 μL acetonitrile/1% formic acid in water (30/70, v/v). An aliquot of 30 μL was injected onto an analytical column (Waters, Symmetry C8, 2.1×150 mm, 5 μm).
The sample passed to the ion-spray interface of the single quadrupole mass spectrometer. Selected ion monitoring mode (SIM) was used for mass spectrometric detection. Quantification was based on peak area ratios and calibration curve established by weighted (1/x^2) linear regression. The calibration curve was established between 5 and 5000 ng/mL using dog plasma as matrix. Data acquisition and integration of SIM chromatograms were performed using MacQuan (version 1.6) from Perkin-Elmer Sciex.
The pharmacokinetic parameters were estimated by non-compartmental analysis, using the pharmacokinetic evaluation program WinNOnlin [1]. AUC(0-inf) was calculated applying the linear trapezoidal rule and extrapolation to infinity using the apparent elimination rate constant λz and the calculated concentration at the last measurable time point. AUClast values were calculated by linear trapezoidal rule from time zero to time of last measureable time point. Cmax, C(t), and Tmax were determined directly from the plasma concentration-time profiles. The apparent terminal half-life (T1/2) was derived from the equation: T1/2=ln2/λz. Means of the half-life were calculated by harmonic means. Plasma clearance, CL, was calculated as D/AUC(0-inf.). Volume of distribution, Vz, was calculated as CL/λz. The absolute bioavailability was calculated from plasma concentration data as follows: […]
A solution of Formula I (hydrochloride salt) was administered intravenously at a dose of 9.4 mg/kg to 2 male rats in two subsequent experiments. In both studies, blood samples were obtained at 0.083, 0.25, 0.5, 1, 2, 4, 6, 8, and 24 h after intravenous application and in addition at 48 and 72 h in the study.

[3] = male, RoRo Fuellinsdorf, rat, in vivo, po, 10 mg/kg
[4] = dogs, single oral, capsule, 120 mg/dog as free base, Protocol A, individual dogs
[5] = dogs, single oral, capsule, 120 mg/dog as free base, Protocol A, individual dogs, listed as hydrochloride salt
[6] = rats NJ97, NJ98, head prints (water, p.o), title: single oral in SSV, listed as Formula I (HCl salt)
[7] = rats NJ99, NJ100, head prints (water, i.p.), title: single oral in water, 9.3 mg/kg free base, listed as Formula I (HCl salt), 9.3 mg/kg
[8] = rats NJ101, NJ102, water, i.v., 9.3 mg/kg free base, listed as Formula I (HCl salt), 9.3 mg/kg

SMILES: Cc1ccccc1-c1cc(N2CCN(C)CC2)ncc1N(C)C(=O)C(C)(C)c1cc(C(F)(F)F)cc(C(F)(F)F)c1 [Free Base, 2-(3,5-bis(trifluoromethyl)phenyl)-N,2-dimethyl-N-(6-(4-methylpiperazin-1-yl)-4-(o-tolyl)pyridin-3-yl)propanamide]
- AUC (0-100 h) ([1]; male, dog, in vivo, po, 70 mg): 12800 ng·h/mL
- AUC (0-Inf.) ([1]; male, dog, in vivo, po, 70 mg): 14500 ng·h/mL
- Cmax ([1]; male, dog, in vivo, po, 70 mg): 667 ng/mL
- T1/2 ([1]; male, dog, in vivo, po, 70 mg): 35.7 h
- AUC(0-t) ([1]; male, dog, in vivo, po, 70 mg): 16200 ng·h/mL
- AUC(0-inf) ([1]; male, dog, in vivo, po, 70 mg): 19300 ng·h/mL
- Cmax ([1]; male, dog, in vivo, po, 70 mg, Cmax): 587 ng/mL
- bioavailability ([1]; male, dog, in vivo, po, 70 mg, F (oral bioavailability)): 64%
- half-life ([1]; male, dog, in vivo, po, 70 mg, T1/2): 40.4 h
- Tmax ([1]; male, dog, in vivo, po, 70 mg, Tmax): 4 to 6 h
- AUC (0-100 h) ([1]; male, dog, in vivo, po, 120 mg): 17400 ng·h/mL
- AUC (0-Inf.) ([1]; male, dog, in vivo, po, 120 mg): 22600 ng·h/mL
- Cmax ([1]; male, dog, in vivo, po, 120 mg): 757 ng/mL
- T1/2 ([1]; male, dog, in vivo, po, 120 mg): 56.3 h
- AUC(0-t) ([1]; male, dog, in vivo, po, 120 mg): 11000 ng·h/mL
- AUC(0-inf) ([1]; male, dog, in vivo, po, 120 mg): 12700 ng·h/mL
- Cmax ([1]; male, dog, in vivo, po, 120 mg, Cmax): 614 ng/mL
- half-life ([1]; male, dog, in vivo, po, 120 mg, T1/2): 39.5 h
- Tmax ([1]; male, dog, in vivo, po, 120 mg, Tmax): 2 h
- half-life ([1]; male, dog, in vivo, po, apparent terminal half-lives): 36 to 56 h
- bioavailability ([1]; male, dog, in vivo, po, oral (systemic) bioavailability): 34 to 83%
- Cmax [2, 3]: 796 ng/mL
- Tmax [2, 3]: 4 h
- Cmax ([2]; male, RoRo Fuellinsdorf, rat, in vivo, po, 10 mg/kg, Cmax): 616 ng/mL
- Tmax ([2]; male, RoRo Fuellinsdorf, rat, in vivo, po, 10 mg/kg, Tmax): 2.2 h

SMILES: Cc1ccccc1-c1cc(N2CCN(C)CC2)ncc1N(C)C(=O)C(C)(C)c1cc(C(F)(F)F)cc(C(F)(F)F)c1.Cl [Hydrochloride]
- AUC (0-100 h) [1, 4]: 25900 ng·h/mL and 20900 ng·h/mL
- AUC (0-Inf.) [1, 4]: 36400 ng·h/mL and 26900 ng·h/mL
- F (oral bioavailability) [1, 4]: 91.4% and 66.7%
- T1/2 [1, 4]: 48.2 h
- Cmax [1, 5]: 1110 ng/mL and 733 ng/mL
- F (oral bioavailability) [1, 5]: 91% and 67%
- T1/2 [1, 5]: 64 h and 44 h
- Tmax [1, 5]: 1 h and 4 h
- F ([2]; rats NJ97, NJ98, head prints (water, p.o), title: single oral in SSV, calculated with AUC 0-48 h, listed as Formula I (HCl salt)): 42.4% and 53.7%
- AUC (0-48 h) [2, 6]: 12000 ng·h/mL and 15200 ng·h/mL
- AUC (0-Inf. h) [2, 6]: 12800 ng·h/mL and 15800 ng·h/mL
- Cmax [2, 6]: 616 ng/mL and 796 ng/mL
- T1/2 [2, 6]: 11.6 h and 10.2 h
- Tmax [2, 6]: 2.2 h and 4.0 h
- AUC (0-48 h) [2, 7]: 26200 ng·h/mL and 20100 ng·h/mL
- AUC (0-Inf. h) [2, 7]: 37900 ng·h/mL and 34000 ng·h/mL
- Cmax [2, 7]: 933 ng/mL and 1060 ng/mL
- F [2, 7]: 98.6% and 75.7%
- T1/2 [2, 7]: 26.5 h and 27.1 h
- Tmax [2, 7]: 6.3 h and 4.0 h
- AUC (0-48 h) [2, 8]: 31700 ng·h/mL and 21400 ng·h/mL
- AUC (0-Inf. h), **calculated with AUC (0-72 h) [2, 8]: 49300** ng · h/mL and 32300** ng · h/mL
- CL* (calculated with AUC (0-24 h)) [2, 8]: 4.96 mL/min/kg and 7.35 mL/min/kg
- T1/2, ***without 72 h concentration [2, 8]: 25.5*** h and 18.2*** h
- Vz* (calculated with AUC (0-24 h)) [2, 8]: 11.0 L/kg and 11.5 L/kg
- plasma concentrations at 72 h relative to those at 48 h ([2]; rats, i.v.): 4 times
- mean apparent terminal half-life ([2]; rats, i.v., 9.4 mg/kg, n=4): 19.8 h
- increase of plasma levels at 72 h post-dose over 48 h ([2]; rats, oral solution in water): very small
- mean (±SD) apparent terminal half-life ([2]; rats, oral solution in water, 4 rats): 13.6 h
- increase of plasma levels at 72 h post-dose over 48 h ([2]; rats, oral suspension in SSV): approximately 5 fold
